From patent US11298337B2, “Parthenolide and its derivative for use in the treatment of axonal damage” (RUHR-UNIVERSITÄT BOCHUM, priority 2015, dated 2022) come the findings set out here.

Assay [1] relates to dissociated DRG neurons from adult wild type mice. The assay is described as follows: Axon growth of dissociated adult DRG neurons in culture. Conditions: adult wt DRG neurons, 2 days in culture.
Description: DRGs (T8-L6) were harvested, incubated in 0.25% trypsin/EDTA (GE Healthcare, Chalfont St Giles, UK) and 0.3% collagenase type IA (Sigma, St. Louis, US-Mo.) in DMEM (Life Technologies, Carlsbad, US-Calif.) at 37° C. and 5% CO2 for 45 min and mechanically dissociated. Cells were resuspended in DMEM containing 10% fetal bovine serum (GE Healthcare) penicillin/streptomycin (500 U/ml; Merck Millipore, Billerica, US-MA) and 5-fluoro-2′-desoxyuridine (100 nM; Sigma). Cells were cultured on poly-D-lysine (PDL, 0.1 mg/ml, molecular weight <300,000 kDa; Sigma) and laminin (20 μg/ml; Sigma) coated 96 well plates (Nunc, Germany) at 37° C. and 5% CO2.
The effect of the tubulin carboxypeptidase (TCP) inhibitor parthenolide on axon growth of mature neurons was determined in dissociated DRG neurons from adult wild type mice as described above.
DRGs (T8-L6) were harvested, incubated in 0.25% trypsin/EDTA (GE Healthcare, Chalfont St Giles, UK) and 0.3% collagenase type IA (Sigma, St. Louis, US-Mo.) in DMEM (Life Technologies, Carlsbad, US-Calif.) at 37° C. and 5% CO2 for 45 min and mechanically dissociated. […]
Axonal growth was determined upon 48 h incubation by fixation in 4% PFA (Sigma) and immunocytochemical staining with antibodies against NeuN (1:2,000; Abcam, ab177487, Cambridge, UK) and βIII-tubulin (1:2,000; Covance, Princeton, US-N.J.). […]
Assay [2] has as its system dissociated DRG neurons from adult wild type mice and GSK3α/GSK3β double knock-in mice. The experiment in a line: Axon growth of DRG neurons with SB216763 or nocodazole (modulation of microtubule dynamics). Conditions: 2 days in culture.
Description: Dorsal root ganglion (DRG) neurons were isolated from adult wild type (wt) and GSK3α/GSK3β mice as described in Gobrecht et al., Nature communications. […] DRGs (T8-L6) were harvested, incubated in 0.25% trypsin/EDTA (GE Healthcare, Chalfont St Giles, UK) and 0.3% collagenase type IA (Sigma, St. Louis, US-Mo.) in DMEM (Life Technologies, Carlsbad, US-Calif.) at 37° C. and 5% CO2 for 45 min and mechanically dissociated. Cells were resuspended in DMEM containing 10% fetal bovine serum (GE Healthcare) penicillin/streptomycin (500 U/ml; Merck Millipore, Billerica, US-MA) and 5-fluoro-2′-desoxyuridine (100 nM; Sigma). Cells were cultured on poly-D-lysine (PDL, 0.1 mg/ml, molecular weight <300,000 kDa; Sigma) and laminin (20 μg/ml; Sigma) coated 96 well plates (Nunc, Germany) at 37° C. and 5% CO2.

`C=C(C(=O)O[C@H]1C/C(C)=C/CC/C(CO)=C/C2OC(=O)C(=C)[C@@H]21)C(O)CO` (stereo in doubt) [cnicin, [(1R,2S,4E,8Z,10S)-8-(hydroxymethyl)-4-methyl-13-methylidene-12-oxo-11-oxabicyclo[8.3.0]trideca-4,8-dien-2-yl] (3S)-3,4-dihydroxy-2-methylidene-butanoate]: the axon growth entry in assay [1] (0.1-100 nM, normalized to vehicle) is listed as “significant, but less pronounced axon growth promotion”. For the same molecule, the “concentration with strongest effects on axon growth” value in assay [1] was 0.5 nM.
Regarding `Cn1cc(C2=C(c3ccc(Cl)cc3Cl)C(=O)NC2=O)c2ccccc21` [SB216763], the “axon growth promoted by GSK3α^S/A/GSK3β^S/A” value in assay [2] (5 μM SB216763, double knock-in DRG neurons) is on record as “efficiently blocked GSK3α^S/A/GSK3β^S/A promoted axon growth”.
As for `COC(=O)Nc1nc2ccc(C(=O)c3cccs3)cc2[nH]1` [nocodazole], the “axon growth, effect on GSK3α^S/A/GSK3β^S/A and parthenolide promoted growth” value in assay [2] (10 nM nocodazole, alone or with 1 nM parthenolide) was “abrogated the beneficial effects of both GSK3α^S/A/GSK3β^S/A and parthenolide to similar extent”.
